Test results published in US20090023753A1, “1,3-Thiazole-5-Carboxamides Useful as Cancer Chemotherapeutic Agents” (Bayer HealthCare AG, priority 2005, published 2009).

Tests used:
[1] = tested on: phospho-ERK in MDA-MB-231 cells; test: Phospho-ERK Cytoblot Assay with MDA-MB 231 cells; type: cell-based; conditions: Homo sapiens, 1 hour compound incubation, phospho-p44/42 MAP kinase (Thr202/Tyr204)
Text: The utility of the compounds of the present invention can also be illustrated, for example, by their activity in the phosph-ERK Assay described below. Growth-factor induction of the RAS/MEK/ERK signaling pathway leads to the induction of phosphorylation of a number of proteins including phospho-ERK (See C. J. Marshall, MAP kinase kinase kinase, MAP kinase kinase and MAP kinase, Current Opinions in Genetic Development, 1994, 4: p. 82-89). The importance of this pathway in cancer biology has been recognized in the art. Activation of the RAS signaling pathway is an important mechanism by which cancer develops (R. Herrera, et al, Unraveling the complexities of the Raf/MAP kinase pathway for pharmacological intervention, Trends Mol. Med., 2002, 8: p. S27-31). Mutational activation of RAS or downstream effectors as well as growth factor induction of this pathway leads to increased tumor cell proliferation and survival (A. A. Adjei, Blocking oncogenic RAS signaling for cancer therapy, J. Natl. Cancer Inst., 2001, 93(14): p. 1062-1074; J Schlessinger, Cell signaling by receptor tyrosine kinases, Cell, 2000, 103: p. 211-225). Phospho-ERK Cytoblot Assay Protocol with MDA-MB 231 Cells MDA-MB-231 cells in log phase were plated at 25,000 cells/well in 96-well opaque plates (Falcon, USA Cat # 353296) in 100 μL RPMI medium containing 10% (w/v) FBS, and incubated overnight at 37° C. in 5% CO2 incubator. The following day, the growth medium was removed from the plate by aspiration and replaced with RPMI medium containing 0.1% BSA and example compounds diluted to generate final concentrations of 0.0, 0.001, 0.003, 0.01, 0.03, 0.1, 0.3, 1 and 3 μM. Cells were incubated with compound for 1 hour at 37° C. in a 5% CO2 incubator. The media was then removed from the plate by aspiration and the cells were washed once with 180 μL/well cold Tris Buffered Saline (TBS). After removal of the wash buffer, the cells were fixed by adding 180 μL of cold 3.7% (v/v) formaldehyde in TBS to each well for 1 hour at 4° C. After removal of the formaldehyde, the cells were treated with the addition of 60 μL of −20° C. methanol to each well for 5 minutes at 4° C. The methanol was removed and the cells were washed with 180 μL/well of 5% (w/v) BSA in TBS. To block non-specific antibody binding sites, each well was treated with 180 μL/well 5% BSA (w/v) in TBS for thirty minutes at room temperature. After removal of the blocking buffer, 50 μL of an anti-phospho-p44/42 MAP kinase (Thr202/Tyr204) rabbit polyclonal antibody (Cell Signaling, USA Cat # 9101) was added to each well at a dilution of 1:1000 in 5% (w/v) BSA in TBS, and the plate was incubated at 4° C. overnight. Plates were then washed three times with 300 μL/well TBS at room temperature. The plates were then incubated with 50 μL of Horseradish peroxidase (HRP)-conjugated goat-anti-rabbit antibody (Amersham, USA Cat. # NA934V) at a dilution of 1:1000 in 5% BSA-TBS at room temperature for 1 hr. After washing the plate three times with 300 μL/well TBS, 60 μL of Enhanced Chemiluminescence (ECL) reagent (Amersham, USA Cat# RPN2209) was added to each well and incubated at room temperature for five minutes. The plate was then read on a Perkin Elmer Victor 5 Multilabel Counter (#1420-0421). […] The utility of the compounds of the present invention can also be illustrated, for example, by their activity in the flk-1 (murine VEGFR2) Assay described below. The VEGF-VEGFR2 signaling pathway has been extensively characterized as an important regulator of angiogenesis and tumor angiogeneisis (See G. Yancopoulos et al, Vascular-specific growth factors and blood vessel formation, Nature, 2000, 407: p. 242-248; D. Shweiki et al, Induction of vascular endothelial growth factor expression by hypoxia and by glucose deficiency in multi cell spheroids: Implications for tumor angiogenesis, Proc. Natl. Acad. Sci, 1995, 92: p. 768-772). Inhibition of tumor cell growth by blocking this pathway has been well documented in the art. […]

[2] = tested on: P-AKT/PKB in H209 small cell lung carcinoma cells; test: P-AKT/PKB Cytoblot Assay with H209 cells (SCF-stimulated); type: cell-based; conditions: Homo sapiens, NCI-H209, 1 hour compound incubation, SCF 25 ng/mL for 5 minutes, p-(S473) AKT
Text: The utility of the compounds of the present invention can be illustrated, for example, by their activity in the P-AKT/PKB Cytoblot Assay described below. The involvement of the P-AKT/PKB[PI3K/AKt] pathway as a target for cancer chemotherapy has been recognized in the art. For example, see F. Chang et al, Involvement of PI3K/Akt pathway in cell cycle progression, apoptosis, and neoplastic transformation: a target for cancer chemotherapy, Leukemia, 2003, 17: p. 590-603; K. A. West et al, Activation of the PI3K/Akt pathway and chemotherapeutic resistance, Drug Resistance Updates, 2002, 5: p. 234-248; and P. Sen et al, Involvement of the Akt/PKB signaling pathway with disease processes, Molecular and Cellular Biochemistry, 2003, 253: p. 241-246.
P-AKT/PKB Cytoblot Assay Protocol with H209 Cells
H209 small cell lung carcinoma cells in log phase were plated at 50,000 cells/well in 96-well poly-lysine coated, clear bottom/black-sided plates (Becton-Dickinson, USA Cat # 354640) in 100 Ill RPMI medium containing 0.1% (w/v) BSA, and incubated overnight at 37° C. in 5% CO2 incubator. The following day, compounds (10 mM stock solutions in DMSO) were added to the plates to generate final concentrations of 0.0, 0.01, 0.03, 0.1, 0.3, 1.0, 3.0 and 10 μM for IC50 determinations and incubated for 1 hour at 37° C. Cells were then left untreated or stimulated with Stem Cell Factor (SCF: Biosource Cat # PHC2116) at a final concentration of 25 ng/mL for 5 minutes at 37° C. in 5% CO2 incubator. The media was then removed using a vacuum manifold and the cells were washed once with Tris Buffered Saline (TBS). Cells were then fixed by adding 200 μl of cold 3.7% (v/v) formaldehyde in TBS to each well for 15 minutes at 4° C. After removal of the formaldehyde, the cells were treated with the addition of 50 μl of methanol (at −20° C.) to each well for 5 minutes. After removal of the methanol, 200 μl of 1% (w/v) BSA in TBS was added to each well to block non-specific antibody binding sites and the plate was incubated at room temperature for 30 minutes.
After removal of the blocking buffer, 50 μl of p-(S473) AKT rabbit polyclonal antibody (Cell Signaling, USA Cat # 9277S) was added at a dilution of 1:250 in 0.1% (w/v) BSA in TBS, and the plate was incubated at room temperature for 1 hour. Plates were then washed 3 times with cold TBS containing 0.05% (v/v) Tween 20 (TBS-T) and 100 μl of Horseradish peroxidase (HRP)-conjugated goat-anti-rabbit antibody (Amersham, USA Cat # NA934V) at a dilution of 1:250 in TBS-T was added and the plate was incubated at room temperature for 1 h. After washing with ice-cold TBS-T four times, 100 μl of Enhanced Chemiluminescence (ECL) reagent (Amersham, USA Cat# RPN2209) was added to each well and mixed on a mini-orbital shaker for 1 min. The plate was then read on a Perkin Elmer Victor 5 Multilabel Counter (#1420-0421).

[3] = target: T1, Flk-1 (murine VEGFR-2) kinase domain (Mus musculus, UniProt P35918); test: Flk-1 (murine VEGFR-2) Biochemical Assay (TR-FRET); conditions: 10 μM ATP, 7 nM Flk-1 (kinase domain)
T1 construct: 7 nM Flk-1 (kinase domain)
T1 sequence (P35918 832-1160 limits assumed): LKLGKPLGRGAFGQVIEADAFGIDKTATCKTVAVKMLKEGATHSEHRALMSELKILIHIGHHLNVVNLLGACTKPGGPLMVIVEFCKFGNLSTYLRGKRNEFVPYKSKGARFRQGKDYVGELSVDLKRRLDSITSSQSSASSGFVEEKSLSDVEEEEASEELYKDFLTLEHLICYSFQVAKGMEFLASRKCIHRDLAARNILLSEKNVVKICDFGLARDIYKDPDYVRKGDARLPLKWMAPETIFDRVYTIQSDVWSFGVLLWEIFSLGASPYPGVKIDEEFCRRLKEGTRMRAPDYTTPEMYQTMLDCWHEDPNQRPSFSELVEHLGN

IC50 [1]: < 3000 nM
IC50 [2]: < 500 nM
IC50 [3]: < 500 nM
SMILES: CCNC(=O)Nc1cc(CNc2ncsc2C(=O)Nc2ccc3c(c2)OC(F)(F)C(F)(F)O3)ccn1 [Example 21, 4-{[(2-{[(ethylamino)carbonyl]amino}pyridin-4-yl)methyl]amino}-N-(2,2,3,3-tetrafluoro-2,3-dihydro-1,4-benzodioxin-6-yl)-1,3-thiazole-5-carboxamide]
